Data: the kinase profiling compilation of Christmann-Franck et al. (2016)

Assays:
Assay in all cases: radiometric filter-binding kinase assay, Kinase HotSpot
Conditions in all cases: compound 0.5 µM; ATP 10 µM
MAP2K2 (human) = MAP2K2 (human) (UniProt P36507)
FER (human) = FER (human) (UniProt P16591)
MARK4 (human) = MARK4 (human) (UniProt Q96L34)
EPHA8 (human) = EPHA8 (human) (UniProt P29322)
MYLK2 (human) = MYLK2 (human) (UniProt Q9H1R3)
CSK (human) = CSK (human) (UniProt P41240)
RPS6KB2 (human) = RPS6KB2 (human) (UniProt Q9UBS0)
PAK7 (human) = PAK7 (human) (UniProt Q9P286)
ACVR1 (human) = ACVR1 (human) (UniProt Q04771)
STK11 (human) = STK11 (human) (UniProt Q15831)
NEK11 (human) = NEK11 (human) (UniProt Q8NG66)
MATK (human) = MATK (human) (UniProt P42679)
TAOK2 (human) = TAOK2 (human) (UniProt Q9UL54)
EPHB1 (human) = EPHB1 (human) (UniProt P54762)
DSTYK (human) = DSTYK (human) (UniProt Q6XUX3)
TYRO3 (human) = TYRO3 (human) (UniProt Q06418)
HCK (human) = HCK (human) (UniProt P08631)
INSR (human) = INSR (human) (UniProt P06213)
EPHB4 (human) = EPHB4 (human) (UniProt P54760)
ABL2 (human) = ABL2 (human) (UniProt P42684)
PRKCG (human) = PRKCG (human) (UniProt P05129)
FGR (human) = FGR (human) (UniProt P09769)
DYRK2 (human) = DYRK2 (human) (UniProt Q92630)
PRKCD (human) = PRKCD (human) (UniProt Q05655)
CDC42BPA (human) = CDC42BPA (human) (UniProt Q5VT25)
TGFBR1 (human) = TGFBR1 (human) (UniProt P36897)
PRKCH (human) = PRKCH (human) (UniProt P24723)
PIM3 (human) = PIM3 (human) (UniProt Q86V86)
MAP3K10 (human) = MAP3K10 (human) (UniProt Q02779)
CDK9 CCNK (human) = CDK9 CCNK (human) (UniProt O75909+P50750)
MAPK13 (human) = MAPK13 (human) (UniProt O15264)
MERTK (human) = MERTK (human) (UniProt Q12866)
BRSK2 (human) = BRSK2 (human) (UniProt Q8IWQ3)
ULK1 (human) = ULK1 (human) (UniProt O75385)
MINK1 (human) = MINK1 (human) (UniProt Q8N4C8)
CSNK1D (human) = CSNK1D (human) (UniProt P48730)
NUAK2 (human) = NUAK2 (human) (UniProt Q9H093)
HIPK2 (human) = HIPK2 (human) (UniProt Q9H2X6)
IKBKB (human) = IKBKB (human) (UniProt O14920)
MARK3 (human) = MARK3 (human) (UniProt P27448)
CDK5 CDK5R1 p35 (human) = CDK5 CDK5R1 p35 (human) (UniProt Q00535+Q15078)

ACVR1 (human), sequence (Q04771 whole entry, looked up): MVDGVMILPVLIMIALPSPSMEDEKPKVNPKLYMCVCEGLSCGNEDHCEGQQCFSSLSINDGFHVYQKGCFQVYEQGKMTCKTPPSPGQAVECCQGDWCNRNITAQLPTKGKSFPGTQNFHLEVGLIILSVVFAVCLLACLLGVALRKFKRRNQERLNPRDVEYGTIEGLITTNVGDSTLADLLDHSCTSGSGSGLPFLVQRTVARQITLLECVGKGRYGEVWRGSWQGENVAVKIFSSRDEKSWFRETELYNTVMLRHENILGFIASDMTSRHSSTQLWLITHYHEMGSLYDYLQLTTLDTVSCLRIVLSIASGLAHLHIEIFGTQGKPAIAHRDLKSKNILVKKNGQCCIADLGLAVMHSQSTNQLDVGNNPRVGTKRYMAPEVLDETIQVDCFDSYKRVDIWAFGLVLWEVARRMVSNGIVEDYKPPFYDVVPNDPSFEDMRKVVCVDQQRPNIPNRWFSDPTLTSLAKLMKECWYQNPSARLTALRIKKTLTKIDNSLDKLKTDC
DYRK2 (human), sequence (Q92630 whole entry, looked up): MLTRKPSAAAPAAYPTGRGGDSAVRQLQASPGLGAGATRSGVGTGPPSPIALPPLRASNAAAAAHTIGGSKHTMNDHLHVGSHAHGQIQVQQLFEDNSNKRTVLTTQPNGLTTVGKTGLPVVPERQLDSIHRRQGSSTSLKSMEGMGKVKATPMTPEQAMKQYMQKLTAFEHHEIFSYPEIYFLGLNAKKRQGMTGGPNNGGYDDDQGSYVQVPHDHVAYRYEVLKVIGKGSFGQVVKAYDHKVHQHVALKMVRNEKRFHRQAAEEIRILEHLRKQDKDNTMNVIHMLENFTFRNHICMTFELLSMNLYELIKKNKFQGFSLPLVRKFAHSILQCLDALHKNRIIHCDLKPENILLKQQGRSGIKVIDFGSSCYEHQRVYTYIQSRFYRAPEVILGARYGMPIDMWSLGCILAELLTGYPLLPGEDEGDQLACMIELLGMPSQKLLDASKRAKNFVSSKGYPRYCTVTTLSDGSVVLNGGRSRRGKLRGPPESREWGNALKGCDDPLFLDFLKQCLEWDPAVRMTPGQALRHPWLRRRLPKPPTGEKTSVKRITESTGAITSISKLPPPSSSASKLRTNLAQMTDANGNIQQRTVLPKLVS
STK11 (human), sequence (Q15831 whole entry, looked up): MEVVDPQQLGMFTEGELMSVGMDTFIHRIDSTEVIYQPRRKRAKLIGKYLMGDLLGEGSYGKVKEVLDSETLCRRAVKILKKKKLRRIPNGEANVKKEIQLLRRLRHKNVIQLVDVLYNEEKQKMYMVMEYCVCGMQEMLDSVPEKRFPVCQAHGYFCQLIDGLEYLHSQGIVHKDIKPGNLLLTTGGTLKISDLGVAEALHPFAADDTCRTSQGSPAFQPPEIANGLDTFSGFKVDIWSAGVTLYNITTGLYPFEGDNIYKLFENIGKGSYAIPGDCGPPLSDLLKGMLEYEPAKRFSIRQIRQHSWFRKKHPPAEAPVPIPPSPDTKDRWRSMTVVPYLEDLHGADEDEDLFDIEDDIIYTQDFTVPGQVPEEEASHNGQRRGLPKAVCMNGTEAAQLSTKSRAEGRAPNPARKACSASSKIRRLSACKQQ
MAP3K10 (human), sequence (Q02779 whole entry, looked up): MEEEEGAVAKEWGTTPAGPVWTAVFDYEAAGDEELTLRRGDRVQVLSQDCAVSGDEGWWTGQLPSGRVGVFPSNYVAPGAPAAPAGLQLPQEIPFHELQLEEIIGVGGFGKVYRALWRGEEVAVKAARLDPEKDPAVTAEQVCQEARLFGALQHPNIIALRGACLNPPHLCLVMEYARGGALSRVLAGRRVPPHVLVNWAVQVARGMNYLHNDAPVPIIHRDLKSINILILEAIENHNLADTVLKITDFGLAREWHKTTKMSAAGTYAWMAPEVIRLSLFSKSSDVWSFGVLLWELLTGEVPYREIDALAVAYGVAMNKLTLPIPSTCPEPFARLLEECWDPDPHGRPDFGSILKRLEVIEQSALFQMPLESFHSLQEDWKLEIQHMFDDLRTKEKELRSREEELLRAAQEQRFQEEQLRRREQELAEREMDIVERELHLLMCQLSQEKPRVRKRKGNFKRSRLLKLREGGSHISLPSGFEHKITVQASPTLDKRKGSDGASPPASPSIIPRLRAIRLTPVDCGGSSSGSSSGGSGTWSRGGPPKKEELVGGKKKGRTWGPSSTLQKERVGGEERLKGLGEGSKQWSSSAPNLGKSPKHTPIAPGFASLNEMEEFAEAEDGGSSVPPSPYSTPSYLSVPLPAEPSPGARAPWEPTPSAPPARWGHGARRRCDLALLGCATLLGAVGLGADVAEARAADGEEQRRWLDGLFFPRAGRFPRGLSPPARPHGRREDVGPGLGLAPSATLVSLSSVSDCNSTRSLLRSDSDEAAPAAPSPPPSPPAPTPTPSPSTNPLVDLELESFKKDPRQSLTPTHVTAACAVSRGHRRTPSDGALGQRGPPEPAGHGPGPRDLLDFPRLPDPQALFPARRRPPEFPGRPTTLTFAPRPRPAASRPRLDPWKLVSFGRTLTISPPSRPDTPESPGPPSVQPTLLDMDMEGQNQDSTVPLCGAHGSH
PRKCH (human), sequence (P24723 whole entry, looked up): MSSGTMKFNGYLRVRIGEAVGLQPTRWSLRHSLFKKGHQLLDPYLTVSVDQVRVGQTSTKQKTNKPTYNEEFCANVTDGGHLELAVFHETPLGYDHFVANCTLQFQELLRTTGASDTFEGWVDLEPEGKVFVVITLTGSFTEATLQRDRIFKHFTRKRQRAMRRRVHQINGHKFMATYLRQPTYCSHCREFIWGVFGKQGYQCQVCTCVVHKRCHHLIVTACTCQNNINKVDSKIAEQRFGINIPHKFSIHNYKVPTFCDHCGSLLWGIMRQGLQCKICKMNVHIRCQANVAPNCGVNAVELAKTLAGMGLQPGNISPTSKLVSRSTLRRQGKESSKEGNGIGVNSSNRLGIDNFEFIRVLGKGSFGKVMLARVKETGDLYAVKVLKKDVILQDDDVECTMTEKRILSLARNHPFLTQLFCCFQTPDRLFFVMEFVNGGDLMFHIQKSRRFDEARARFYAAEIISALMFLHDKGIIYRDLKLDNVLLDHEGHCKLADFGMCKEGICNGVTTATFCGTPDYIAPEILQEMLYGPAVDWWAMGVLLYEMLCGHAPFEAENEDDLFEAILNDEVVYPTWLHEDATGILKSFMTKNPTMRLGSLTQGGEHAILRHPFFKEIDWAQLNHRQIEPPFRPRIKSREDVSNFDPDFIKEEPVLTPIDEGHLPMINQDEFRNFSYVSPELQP
FGR (human), sequence (P09769 whole entry, looked up): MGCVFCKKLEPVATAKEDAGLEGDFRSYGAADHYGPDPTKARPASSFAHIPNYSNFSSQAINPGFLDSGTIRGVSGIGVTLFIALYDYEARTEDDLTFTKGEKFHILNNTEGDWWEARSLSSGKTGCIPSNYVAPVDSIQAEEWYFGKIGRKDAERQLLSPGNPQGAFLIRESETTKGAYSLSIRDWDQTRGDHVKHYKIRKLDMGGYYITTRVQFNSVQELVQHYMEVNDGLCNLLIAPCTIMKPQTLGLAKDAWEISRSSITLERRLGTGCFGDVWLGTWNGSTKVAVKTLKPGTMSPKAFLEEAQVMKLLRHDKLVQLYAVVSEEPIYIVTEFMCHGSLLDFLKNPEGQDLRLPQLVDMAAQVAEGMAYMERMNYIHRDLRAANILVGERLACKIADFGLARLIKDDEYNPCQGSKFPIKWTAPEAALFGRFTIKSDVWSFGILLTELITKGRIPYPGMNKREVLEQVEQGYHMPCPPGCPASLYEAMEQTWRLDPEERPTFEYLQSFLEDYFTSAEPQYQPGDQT
CDK9 CCNK (human), sequence (O75909 whole entry, looked up): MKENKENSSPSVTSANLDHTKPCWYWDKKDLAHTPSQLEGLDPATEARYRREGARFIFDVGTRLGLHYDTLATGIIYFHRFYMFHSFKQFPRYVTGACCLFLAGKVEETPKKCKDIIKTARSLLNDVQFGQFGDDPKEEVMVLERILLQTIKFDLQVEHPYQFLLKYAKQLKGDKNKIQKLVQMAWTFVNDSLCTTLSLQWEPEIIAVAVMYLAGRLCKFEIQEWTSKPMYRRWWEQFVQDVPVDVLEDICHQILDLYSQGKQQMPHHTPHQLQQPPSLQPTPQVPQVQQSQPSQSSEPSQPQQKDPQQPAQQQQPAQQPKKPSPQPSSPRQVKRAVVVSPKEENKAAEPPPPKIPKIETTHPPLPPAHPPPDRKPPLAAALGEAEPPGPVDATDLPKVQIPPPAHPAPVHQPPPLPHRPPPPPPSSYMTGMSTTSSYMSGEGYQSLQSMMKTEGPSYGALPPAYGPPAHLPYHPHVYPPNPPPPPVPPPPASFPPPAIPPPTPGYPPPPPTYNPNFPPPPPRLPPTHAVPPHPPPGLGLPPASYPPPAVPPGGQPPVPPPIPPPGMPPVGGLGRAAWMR
CDK9 CCNK (human), sequence (P50750 whole entry, looked up): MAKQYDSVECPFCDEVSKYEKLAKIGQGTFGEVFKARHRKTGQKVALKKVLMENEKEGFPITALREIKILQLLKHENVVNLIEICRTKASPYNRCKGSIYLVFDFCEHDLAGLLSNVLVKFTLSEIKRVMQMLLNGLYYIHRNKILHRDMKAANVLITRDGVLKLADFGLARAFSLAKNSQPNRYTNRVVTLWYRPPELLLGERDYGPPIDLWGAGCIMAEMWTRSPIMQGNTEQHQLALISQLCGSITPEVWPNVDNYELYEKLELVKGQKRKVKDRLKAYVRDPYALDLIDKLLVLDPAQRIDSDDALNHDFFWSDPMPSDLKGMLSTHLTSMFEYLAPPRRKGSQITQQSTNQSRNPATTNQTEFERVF

| Compound | residual activity (MAP2K2 (human)) [%] | residual activity (FER (human)) [%] | residual activity (MARK4 (human)) [%] | residual activity (MYLK2 (human)) [%] | residual activity (RPS6KB2 (human)) [%] | residual activity (PAK7 (human)) [%] | residual activity (ACVR1 (human)) [%] | residual activity (STK11 (human)) [%] | residual activity (NEK11 (human)) [%] | residual activity (MATK (human)) [%] | residual activity (TAOK2 (human)) [%] | residual activity (EPHB1 (human)) [%] | residual activity (DSTYK (human)) [%] | residual activity (TYRO3 (human)) [%] | residual activity (INSR (human)) [%] | residual activity (ABL2 (human)) [%] | residual activity (PRKCG (human)) [%] | residual activity (FGR (human)) [%] | residual activity (DYRK2 (human)) [%] | residual activity (PRKCD (human)) [%] | further results |
| --- | --- | --- | --- | --- | --- | --- | --- | --- | --- | --- | --- | --- | --- | --- | --- | --- | --- | --- | --- | --- | --- |
| O=S(=O)(c1cccc2cnccc12)N1CCCNCC1 | 117 | 103 | 103 | 99.6 | 81.9 | 73.1 | 96.5 | 97.6 | 114 | 99.6 | 87.3 | 106 | 90.4 | 87.9 | 95 | 87.6 | 110 | 90.5 | 97.9 | 84.7 | residual activity (EPHA8 (human)): 106%; residual activity (CSK (human)): 87.9%; residual activity (HCK (human)): 95.9%; residual activity (EPHB4 (human)): 107%; residual activity (CDC42BPA (human)): 104%; residual activity (TGFBR1 (human)): 98.4%; residual activity (PRKCH (human)): 84%; residual activity (PIM3 (human)): 91.4%; residual activity (MAP3K10 (human)): 88.3%; residual activity (CDK9 CCNK (human)): 86%; residual activity (MAPK13 (human)): 98.8%; residual activity (MERTK (human)): 88.3%; residual activity (BRSK2 (human)): 91.7%; residual activity (ULK1 (human)): 103%; residual activity (MINK1 (human)): 96.6%; residual activity (CSNK1D (human)): 99.7%; residual activity (NUAK2 (human)): 83.5% |
| COc1ccc(COc2ccc(Cc3cnc(N)nc3N)cc2OC)cc1 | 101 | 93.4 | 89.7 | 104 | 100 | 103 | 100 | 103 | 103 | 94.8 | 94.7 | 103 | 95 | 110 | 97 | 107 | 102 | 92.3 | 105 | 87.8 | residual activity (HIPK2 (human)): 103%; residual activity (IKBKB (human)): 99.9%; residual activity (EPHB4 (human)): 90.5%; residual activity (CDC42BPA (human)): 94.4%; residual activity (TGFBR1 (human)): 97%; residual activity (PRKCH (human)): 88.6%; residual activity (PIM3 (human)): 95.9%; residual activity (MAP3K10 (human)): 96.4%; residual activity (CDK9 CCNK (human)): 102%; residual activity (MAPK13 (human)): 96%; residual activity (MERTK (human)): 90.3%; residual activity (BRSK2 (human)): 96.8%; residual activity (ULK1 (human)): 99.7%; residual activity (MINK1 (human)): 86.5%; residual activity (CSNK1D (human)): 98.5%; residual activity (MARK3 (human)): 103%; residual activity (NUAK2 (human)): 98.1% |
| Nc1cccc(-c2cc3c(Oc4cccc(O)c4)ncnc3[nH]2)c1 | 104 | 44 | 68.8 | 29.9 | 94.7 | 86.9 | 183 | 12.4 | 89.6 | 97.8 | 81.4 | 40 | 83.4 | 52.1 | 93.7 | 1.4 | 88.1 | 5.28 | 76.9 | 95.7 | residual activity (EPHA8 (human)): 57.5%; residual activity (HIPK2 (human)): 100%; residual activity (CSK (human)): 43.6%; residual activity (HCK (human)): 6.65%; residual activity (IKBKB (human)): 90.8%; residual activity (CDC42BPA (human)): 87.7%; residual activity (TGFBR1 (human)): 101%; residual activity (PRKCH (human)): 90%; residual activity (PIM3 (human)): 129%; residual activity (MAP3K10 (human)): 79.2%; residual activity (CDK9 CCNK (human)): 58.4%; residual activity (MAPK13 (human)): 104%; residual activity (MERTK (human)): 63.8%; residual activity (CDK5 CDK5R1 p35 (human)): 72.2%; residual activity (BRSK2 (human)): 86.9%; residual activity (ULK1 (human)): 143%; residual activity (MINK1 (human)): 34.7%; residual activity (CSNK1D (human)): 96.8%; residual activity (MARK3 (human)): 77.5%; residual activity (NUAK2 (human)): 90.3% |
